Results taken from ChEMBL document CHEMBL1125828 (J Med Chem, 1991).

Assays:
[1] = target: GABA-A receptor; anion channel; assay: Inhibition of [3H]GABA binding to gamma-aminobutyric-acid A (GABA-A) receptor; type: protein-complex assay, Rattus norvegicus
GABA B receptor = GABA B receptor (Rattus norvegicus, UniProt O88871+Q9Z0U4); assay: Displacement of [3H]baclofen from gamma-aminobutyric-acid B receptor; type: protein-complex assay
Chain of GABA B receptor (Q9Z0U4 whole entry): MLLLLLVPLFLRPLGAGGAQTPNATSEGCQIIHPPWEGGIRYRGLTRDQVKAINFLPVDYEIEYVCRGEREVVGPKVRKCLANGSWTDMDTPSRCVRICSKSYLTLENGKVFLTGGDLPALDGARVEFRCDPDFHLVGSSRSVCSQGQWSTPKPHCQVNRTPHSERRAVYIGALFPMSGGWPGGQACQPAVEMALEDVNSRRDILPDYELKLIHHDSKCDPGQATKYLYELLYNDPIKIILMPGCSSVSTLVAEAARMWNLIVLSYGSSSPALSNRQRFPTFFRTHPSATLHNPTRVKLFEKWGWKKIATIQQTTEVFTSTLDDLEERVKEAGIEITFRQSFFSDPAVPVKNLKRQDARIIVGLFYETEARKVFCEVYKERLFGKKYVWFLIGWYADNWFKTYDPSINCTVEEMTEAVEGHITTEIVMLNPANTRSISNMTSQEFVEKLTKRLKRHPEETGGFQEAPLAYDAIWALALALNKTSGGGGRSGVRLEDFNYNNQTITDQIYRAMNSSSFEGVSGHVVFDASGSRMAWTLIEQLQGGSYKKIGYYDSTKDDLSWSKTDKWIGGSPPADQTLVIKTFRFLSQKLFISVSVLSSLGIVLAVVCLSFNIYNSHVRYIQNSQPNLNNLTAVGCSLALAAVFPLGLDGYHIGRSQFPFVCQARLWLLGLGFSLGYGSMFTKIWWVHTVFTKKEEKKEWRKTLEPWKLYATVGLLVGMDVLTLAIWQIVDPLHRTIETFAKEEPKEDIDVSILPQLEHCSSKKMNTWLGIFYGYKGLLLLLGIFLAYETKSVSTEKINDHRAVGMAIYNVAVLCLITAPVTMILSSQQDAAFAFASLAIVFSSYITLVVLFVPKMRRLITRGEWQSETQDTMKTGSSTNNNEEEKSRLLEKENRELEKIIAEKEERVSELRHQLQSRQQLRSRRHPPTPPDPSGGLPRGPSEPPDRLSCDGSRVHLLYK
Chain of GABA B receptor (O88871 whole entry): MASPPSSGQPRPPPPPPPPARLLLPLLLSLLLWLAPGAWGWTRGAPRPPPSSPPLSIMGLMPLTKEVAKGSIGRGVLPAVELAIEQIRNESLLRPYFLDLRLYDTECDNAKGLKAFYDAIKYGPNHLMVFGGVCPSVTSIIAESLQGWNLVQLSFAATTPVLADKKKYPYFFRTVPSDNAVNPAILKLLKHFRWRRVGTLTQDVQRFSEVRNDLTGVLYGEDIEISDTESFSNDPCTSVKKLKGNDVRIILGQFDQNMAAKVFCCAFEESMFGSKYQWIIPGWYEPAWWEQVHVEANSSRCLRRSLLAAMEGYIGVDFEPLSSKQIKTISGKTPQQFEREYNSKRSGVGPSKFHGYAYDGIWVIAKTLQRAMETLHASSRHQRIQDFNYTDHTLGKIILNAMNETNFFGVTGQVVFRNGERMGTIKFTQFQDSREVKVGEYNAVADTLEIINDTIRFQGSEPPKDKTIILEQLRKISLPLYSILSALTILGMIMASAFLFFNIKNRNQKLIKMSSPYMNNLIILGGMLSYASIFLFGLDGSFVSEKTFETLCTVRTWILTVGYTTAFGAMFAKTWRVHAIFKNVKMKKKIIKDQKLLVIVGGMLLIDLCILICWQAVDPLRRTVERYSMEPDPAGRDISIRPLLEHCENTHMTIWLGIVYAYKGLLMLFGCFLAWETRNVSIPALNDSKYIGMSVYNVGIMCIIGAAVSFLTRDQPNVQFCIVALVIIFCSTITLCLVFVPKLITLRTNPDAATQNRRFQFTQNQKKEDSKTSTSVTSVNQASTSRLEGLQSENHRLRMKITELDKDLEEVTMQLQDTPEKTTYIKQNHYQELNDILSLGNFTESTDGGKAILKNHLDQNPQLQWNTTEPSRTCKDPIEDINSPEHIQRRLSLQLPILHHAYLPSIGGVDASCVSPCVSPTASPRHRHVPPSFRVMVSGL

Compound | IC50 [1] [µM] | IC50 (GABA B receptor) [µM]
NCC(CC(=O)O)c1ccc(Cl)cc1Cl (configuration not stated) | > 100 | 11
NCC1(CC(=O)O)CCCc2ccccc21 (configuration not stated) | > 100 | > 100
NCC(CC(=O)O)c1c(Cl)cccc1Cl (configuration not stated) | > 100 | > 100
NCC1(CC(=O)O)CCc2ccccc21 (configuration not stated) | > 100 | > 100
NCC1(CC(=O)O)Cc2ccccc21 (configuration not stated) | > 100 | > 100
NCC1(CC(=O)O)CCc2cc(Cl)ccc21 (configuration not stated) | > 100 | > 100
